Measured values: ChEMBL document CHEMBL2046378, “Investigation of chalcones as selective inhibitors of the breast cancer resistance protein: critical role of methoxylation in both inhibition potency and cytotoxicity” (J Med Chem, 2012)

Tests used:
ABCG2 [1] = biological target: T1, ABCG2 (Homo sapiens, UniProt Q9UNQ0); assay: Inhibition of ABCG2-mediated mitoxantrone efflux expressed in HEK293 cells at 2 uM after 48 hrs by flow cytometric analysis; format: cell-based; settings: HEK293 cells expressing ABCG2, probe mitoxantrone
T1 sequence (Q9UNQ0 whole entry): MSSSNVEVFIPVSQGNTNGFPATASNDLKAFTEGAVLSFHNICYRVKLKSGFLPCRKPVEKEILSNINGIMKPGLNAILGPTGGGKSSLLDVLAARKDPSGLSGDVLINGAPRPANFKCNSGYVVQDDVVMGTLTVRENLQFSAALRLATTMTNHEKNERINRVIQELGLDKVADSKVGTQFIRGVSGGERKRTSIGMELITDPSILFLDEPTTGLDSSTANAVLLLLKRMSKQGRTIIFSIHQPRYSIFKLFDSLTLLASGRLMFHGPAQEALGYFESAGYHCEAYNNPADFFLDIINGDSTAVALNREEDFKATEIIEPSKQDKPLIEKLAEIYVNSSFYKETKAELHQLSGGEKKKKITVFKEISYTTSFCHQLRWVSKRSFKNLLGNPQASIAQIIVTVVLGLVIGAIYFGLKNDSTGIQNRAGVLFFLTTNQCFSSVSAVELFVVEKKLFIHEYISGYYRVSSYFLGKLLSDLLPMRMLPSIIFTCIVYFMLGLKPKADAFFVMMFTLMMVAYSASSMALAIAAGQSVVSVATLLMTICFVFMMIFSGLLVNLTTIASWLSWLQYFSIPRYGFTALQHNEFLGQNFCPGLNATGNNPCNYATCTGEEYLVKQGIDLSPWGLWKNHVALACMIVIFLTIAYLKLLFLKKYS

ABCG2 [2] = biological target: T1, ABCG2; assay: Inhibition of ABCG2-mediated mitoxantrone efflux expressed in HEK293 cells at 10 uM after 48 hrs by flow cytometric analysis; format: cell-based; settings: HEK293 cells expressing ABCG2, probe mitoxantrone
[3] = Cytotoxicity against human HEK293 cells transfected with ABCG2 after 72 hrs by MTT assay; format: ADME, cell-based; settings: read-out: IG50
[4] = biological target: Multidrug resistance-associated protein 1 (Homo sapiens, UniProt P33527); assay: Inhibition of ABCC1-mediated calcein transport expressed in human HEK293 cells at 10 uM after 48 hrs by flow cytometric analysis; format: cell-based; settings: hek293, 48 h
Chain of Multidrug resistance-associated protein 1 (P33527 whole entry): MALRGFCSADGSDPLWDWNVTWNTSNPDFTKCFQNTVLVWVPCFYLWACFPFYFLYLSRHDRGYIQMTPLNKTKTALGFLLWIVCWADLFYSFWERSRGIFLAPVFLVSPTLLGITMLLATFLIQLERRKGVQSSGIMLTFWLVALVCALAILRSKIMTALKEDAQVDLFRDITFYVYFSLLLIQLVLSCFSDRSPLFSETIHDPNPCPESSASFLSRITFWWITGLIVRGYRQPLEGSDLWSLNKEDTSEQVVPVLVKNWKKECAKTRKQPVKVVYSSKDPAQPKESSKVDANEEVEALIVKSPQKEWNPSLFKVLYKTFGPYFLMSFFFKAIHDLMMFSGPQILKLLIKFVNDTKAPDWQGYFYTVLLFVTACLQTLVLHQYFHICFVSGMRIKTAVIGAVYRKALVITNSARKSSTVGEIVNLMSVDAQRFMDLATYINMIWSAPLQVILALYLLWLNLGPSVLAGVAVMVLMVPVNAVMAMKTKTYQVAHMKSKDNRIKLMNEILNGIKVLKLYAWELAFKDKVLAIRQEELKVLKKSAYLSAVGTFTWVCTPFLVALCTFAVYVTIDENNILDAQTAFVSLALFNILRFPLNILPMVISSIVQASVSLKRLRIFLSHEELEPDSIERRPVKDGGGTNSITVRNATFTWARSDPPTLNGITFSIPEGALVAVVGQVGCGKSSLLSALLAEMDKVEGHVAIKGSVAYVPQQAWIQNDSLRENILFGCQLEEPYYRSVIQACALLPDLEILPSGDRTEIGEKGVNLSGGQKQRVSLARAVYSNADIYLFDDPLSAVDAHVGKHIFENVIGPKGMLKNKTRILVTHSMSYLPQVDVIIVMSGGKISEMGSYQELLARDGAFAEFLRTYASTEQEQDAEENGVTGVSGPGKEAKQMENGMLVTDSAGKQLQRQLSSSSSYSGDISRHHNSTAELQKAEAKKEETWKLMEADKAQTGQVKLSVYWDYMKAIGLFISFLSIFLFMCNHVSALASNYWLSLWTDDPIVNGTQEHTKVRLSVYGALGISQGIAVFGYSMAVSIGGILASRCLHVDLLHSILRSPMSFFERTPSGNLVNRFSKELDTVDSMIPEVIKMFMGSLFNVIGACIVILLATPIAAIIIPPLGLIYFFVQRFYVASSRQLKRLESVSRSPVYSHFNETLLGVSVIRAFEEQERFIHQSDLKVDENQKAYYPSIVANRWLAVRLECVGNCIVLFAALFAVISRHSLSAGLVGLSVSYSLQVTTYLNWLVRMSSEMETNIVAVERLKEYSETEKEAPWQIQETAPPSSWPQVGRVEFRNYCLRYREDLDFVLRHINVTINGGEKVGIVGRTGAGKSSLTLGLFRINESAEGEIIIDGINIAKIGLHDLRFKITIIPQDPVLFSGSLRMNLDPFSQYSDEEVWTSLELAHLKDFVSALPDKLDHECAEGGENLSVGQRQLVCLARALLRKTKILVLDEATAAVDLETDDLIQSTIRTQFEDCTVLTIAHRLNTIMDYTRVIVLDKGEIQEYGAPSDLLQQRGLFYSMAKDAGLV

ABCG2 [5] = assay: Therapeutic index, ratio of IG50 for HEK293 cells to IC50 for ABCG2; format: cell-based; settings: human, read-out: TI
HEK293 = assay: Cytotoxicity against human HEK293 cells transfected with ABCG2 up to 100 uM after 72 hrs by MTT assay; format: ADME, cell-based; settings: hek293, 72 h
[6] = biological target: ATP-dependent translocase ABCB1 (Homo sapiens, UniProt P08183); assay: Inhibition of ABCB1-mediated mitoxantrone efflux expressed in HEK293 cells at 10 uM after 48 hrs by flow cytometric analysis; format: cell-based; settings: hek293, 48 h
Chain of ATP-dependent translocase ABCB1 (P08183 whole entry): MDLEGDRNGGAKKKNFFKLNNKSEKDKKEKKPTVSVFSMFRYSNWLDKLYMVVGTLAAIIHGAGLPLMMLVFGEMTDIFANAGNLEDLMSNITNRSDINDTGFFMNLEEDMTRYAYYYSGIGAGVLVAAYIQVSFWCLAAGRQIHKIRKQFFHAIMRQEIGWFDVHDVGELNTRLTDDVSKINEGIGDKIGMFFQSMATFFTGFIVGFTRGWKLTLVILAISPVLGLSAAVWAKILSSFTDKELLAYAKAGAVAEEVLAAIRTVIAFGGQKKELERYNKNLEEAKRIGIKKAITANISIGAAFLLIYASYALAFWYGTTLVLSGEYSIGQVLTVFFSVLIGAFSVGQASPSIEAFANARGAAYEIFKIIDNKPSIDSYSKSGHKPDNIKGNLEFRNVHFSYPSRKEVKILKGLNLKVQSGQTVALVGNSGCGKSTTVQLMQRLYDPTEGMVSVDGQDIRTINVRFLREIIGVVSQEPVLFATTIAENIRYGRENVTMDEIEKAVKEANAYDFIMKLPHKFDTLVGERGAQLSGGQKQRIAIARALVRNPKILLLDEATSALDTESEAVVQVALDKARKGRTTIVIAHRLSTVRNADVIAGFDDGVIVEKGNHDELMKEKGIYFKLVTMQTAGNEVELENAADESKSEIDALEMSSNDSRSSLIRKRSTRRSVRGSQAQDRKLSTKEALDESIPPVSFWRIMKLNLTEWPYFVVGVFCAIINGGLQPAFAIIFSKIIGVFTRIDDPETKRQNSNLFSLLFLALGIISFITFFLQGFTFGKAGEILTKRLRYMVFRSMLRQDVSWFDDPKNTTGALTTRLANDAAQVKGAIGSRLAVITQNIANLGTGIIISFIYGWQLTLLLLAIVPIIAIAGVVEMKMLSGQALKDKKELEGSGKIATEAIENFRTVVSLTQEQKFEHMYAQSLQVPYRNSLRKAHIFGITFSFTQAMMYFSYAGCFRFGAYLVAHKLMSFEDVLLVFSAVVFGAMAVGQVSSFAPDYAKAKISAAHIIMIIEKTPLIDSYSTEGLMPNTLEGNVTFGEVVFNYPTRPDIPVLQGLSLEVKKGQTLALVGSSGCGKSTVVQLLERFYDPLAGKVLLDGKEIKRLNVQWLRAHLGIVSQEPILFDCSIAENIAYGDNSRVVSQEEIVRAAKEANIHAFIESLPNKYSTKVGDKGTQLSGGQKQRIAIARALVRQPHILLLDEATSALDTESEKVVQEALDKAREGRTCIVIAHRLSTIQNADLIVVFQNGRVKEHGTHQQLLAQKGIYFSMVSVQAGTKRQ

[7] = biological target: T2, Broad substrate specificity ATP-binding cassette transporter ABCG2 (Homo sapiens, UniProt Q9UNQ0); assay: Inhibition of ABCG2-mediated mitoxantrone efflux expressed in HEK293 cells after 48 hrs by flow cytometric analysis; format: cell-based
T2 sequence (Q9UNQ0 whole entry): T1 sequence (Q9UNQ0 whole entry)

ABCG2 [8] = biological target: T1, ABCG2; assay: Inhibition of ABCG2-mediated mitoxantrone efflux expressed in HEK293 cells at 5 uM after 48 hrs by flow cytometric analysis; format: cell-based; settings: HEK293 cells expressing ABCG2, probe mitoxantrone

Row | Structure (SMILES) | inhibition at 48 h, 2 µM (ABCG2 [1]) [%] | inhibition at 48 h, 10 µM (ABCG2 [2]) [%] | GI50 at 72 h [3] [µM] | inhibition (INH) [4] | selectivity ratio (ABCG2 [5]) | Activity (HEK293) | inhibition (INH) [6] | IC50 [7] [µM] | inhibition at 48 h, 5 µM (ABCG2 [8]) [%]
1 | COc1cc(OC)c(C(=O)/C=C/c2cn(C)c3ccccc23)c(OC)c1 | 3.7 | 30 | – | – | – | – | – | – | –
2 | COc1cc(OC)c(/C=C/C(=O)c2cn(C)c3ccccc23)c(OC)c1 | 93.8 | 109 | 4 | Not Active | 9 | Non-toxic | Not Active | 0.45 | –
3 | COc1ccc(C(=O)/C=C/c2cn(C)c3ccccc23)cc1 | 55.5 | 89 | – | – | – | – | – | – | –
4 | COc1ccc(C(=O)/C=C/c2cn(C)c3ccccc23)c(OC)c1 | 88.2 | 125 | – | – | – | – | – | – | –
5 | COc1cc2c(cc1OC)CN(CCc1ccc(NC(=O)c3cccc4c(=O)c5cccc(OC)c5[nH]c34)cc1)CC2 | – | – | – | – | – | – | – | – | 100
6 | COc1cccc(/C=C/C(=O)c2c(O)cc(OC)cc2OC)c1 | – | – | 10 | Not Active | – | Non-toxic | Not Active | 0.26 | –
7 | COc1cccc(OC)c1C(=O)/C=C/c1cn(C)c2ccccc12 | 2.9 | 17.4 | – | – | – | – | – | – | –
8 | COc1cc(/C=C/C(=O)c2c(O)cc(OC)cc2OC)cc(OC)c1 | – | – | 6 | Not Active | – | Non-toxic | Not Active | 0.17 | –
9 | COc1ccc(C(=O)/C=C/c2ccc(OC)c(OC)c2)c(O)c1 | 71.1 | 76.5 | – | – | – | – | – | – | –
10 | COc1cccc(OC)c1/C=C/C(=O)c1cn(C)c2ccccc12 | 104 | 113 | 50 | Not Active | 185 | Non-toxic | Not Active | 0.27 | –
11 | COc1cc(O)c(C(=O)/C=C/c2c(OC)cccc2OC)c(OC)c1 | – | – | 50 | Not Active | – | Non-toxic | Not Active | 0.35 | –
12 | Cn1cc(/C=C/C(=O)c2cn(C)c3ccccc23)c2ccccc21 | 52.1 | 98.8 | – | – | – | – | – | – | –
13 | COc1cc(OC)c(/C=C/C(=O)c2cn(C)c3ccc(OC)cc23)c(OC)c1 | 89.1 | 111 | 1 | Not Active | 3 | Non-toxic | Not Active | 0.35 | –
14 | COc1cc(/C=C/C(=O)c2cn(C)c3ccccc23)cc(OC)c1OC | 49.3 | 70 | – | – | – | – | – | – | –
15 | COc1ccc(/C=C/C(=O)c2cn(C)c3ccccc23)c(OC)c1 | 83.8 | 108 | – | – | – | – | – | – | –
